Data on 54 molecules can be found in the supplement of paper PMC11997997.

Each structure is given as a SMILES string.

The test system of test [1] is Mycobacterium tuberculosis CDC1551 (intracellular, in murine BMDM). The experiment in a line: area under intracellular growth-inhibition dose-response curve (AUC (% inhibition x dose, relative)); higher = more potent. The settings on record: duration: 6 days; dose range: 0.13-80 uM, 8 points. In outline:
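In 384-well opaque plates, primary murine bone marrow-derived macrophages were infected with luciferase-expressing M. tuberculosis CDC1551 (multiplicity of infection 1, 1 h) 24 h after seeding, then treated for 6 days across final concentrations of 80–0.13 μM. Growth was measured by Bright-Glo luciferin assay, normalised to a reference drug control and the lowest-concentration wells. The reported value is the area under the growth-inhibition dose–response curve from GraphPad Prism.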

Test [2] deals with murine bone marrow-derived macrophages. Kind of test: area under cytotoxicity dose-response curve (AUC (% cytotoxicity x dose, relative)); higher = more cytotoxic. The settings on record: duration: 6 days; dose range: 0.13-80 uM, 8 points. In outline:
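Cytotoxicity is expressed as the area under the dose–response curve from GraphPad Prism version 10. To obtain it, primary murine bone marrow-derived macrophages were incubated for 6 days at 37 °C in 5% CO2 across final concentrations of 80–0.13 μM. Viability came from CellTiter-Glo luminescence, and percent cytotoxicity was normalised to vehicle and positive control wells.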

In the case of `COc1ccc(OC)c2nc3c(cc12)CCC3`, the “area under intracellular growth-inhibition dose-response curve” value in test [1] turned out to be 211. The “area under cytotoxicity dose-response curve” value in test [2] stood at 23.1.

In the case of `Cc1ccc(-n2c(C)cc(/C=N/NC(N)=S)c2C)cc1`, the “area under intracellular growth-inhibition dose-response curve” value in test [1] turned out to be 233. Moreover, in test [2], the “area under cytotoxicity dose-response curve” value is 26.

In the case of `Cc1cc(/C=N/NC(N)=S)c(C)n1-c1ccc(Cl)c(Cl)c1`, in test [1], the “area under intracellular growth-inhibition dose-response curve” value stood at 257. Further, the “area under cytotoxicity dose-response curve” value in test [2] was below 0.

In the case of `COCCCNCC(=O)Nc1sc(C)c(C)c1C(=O)OC.O=C(O)C(=O)O`, the “area under intracellular growth-inhibition dose-response curve” value in test [1] was 76.8. In test [2], the “area under cytotoxicity dose-response curve” value was 48.9.

As to `O=C(c1ccc(Cl)c(Cl)c1)N1CCCC1`, in test [1], the “area under intracellular growth-inhibition dose-response curve” value is 86.7. For the same molecule, the “area under cytotoxicity dose-response curve” value in test [2] turned out to be 52.5.

On to `O=[N+]([O-])c1cc([N+](=O)[O-])c2nonc2c1Nc1ccccc1O`, for which, in test [1], the “area under intracellular growth-inhibition dose-response curve” value was 146. In addition, the “area under cytotoxicity dose-response curve” value in test [2] was 5.05.

Consider `CCCOc1ccc(C(=O)CCC(=O)NNC(=O)c2ccncc2)cc1`, for which the “area under intracellular growth-inhibition dose-response curve” value in test [1] came out at 269. In addition, the “area under cytotoxicity dose-response curve” value in test [2] is below 0.

As to `Cc1cc(/C=N/NC(N)=S)c(C)n1-c1cccc(Cl)c1`, the “area under intracellular growth-inhibition dose-response curve” value in test [1] is 190. The “area under cytotoxicity dose-response curve” value in test [2] was found to be 34.

For `Cc1ccc(S(=O)(=O)N2CCOCC2)cc1C(=O)OCC(=O)NC1CC1`, the “area under intracellular growth-inhibition dose-response curve” value in test [1] was 97.3. Besides, the “area under cytotoxicity dose-response curve” value in test [2] is 7.09.

Turning to `COc1ccc(NC(=O)CON=CC(=O)Nc2ccc(C)cc2)c(OC)c1`, the “area under intracellular growth-inhibition dose-response curve” value in test [1] turned out to be 38.9. Besides, the “area under cytotoxicity dose-response curve” value in test [2] was 7.

With `Cc1ccccc1CNC(=O)c1ccccc1`, in test [1], the “area under intracellular growth-inhibition dose-response curve” value was 213. The “area under cytotoxicity dose-response curve” value in test [2] came to 38.3.

As for `Cc1ccc(C(=O)NC2CCCCC2)cc1`, the “area under intracellular growth-inhibition dose-response curve” value in test [1] is 228. The “area under cytotoxicity dose-response curve” value in test [2] was determined as 43.3.

As to `O=C(NCc1ccc(F)cc1)c1ccc(Br)o1`, in test [1], the “area under intracellular growth-inhibition dose-response curve” value amounted to 228. Besides, the “area under cytotoxicity dose-response curve” value in test [2] worked out at 42.3.

Turning to `CSc1ccc(C(=O)C2CCCN(C(=O)c3ccc4c(c3)no[n+]4[O-])C2)cc1` (stereo not drawn), the “area under intracellular growth-inhibition dose-response curve” value in test [1] turned out to be 191. Also, the “area under cytotoxicity dose-response curve” value in test [2] was found to be 64.7.

Regarding `CCn1c(C)cs/c1=N/C(=O)c1ccccc1`, the “area under intracellular growth-inhibition dose-response curve” value in test [1] was 197. The “area under cytotoxicity dose-response curve” value in test [2] turned out to be 25.7.

As to `CN(C)c1ccc(Nc2ncnc3ccc(Br)cc23)cc1`, the “area under intracellular growth-inhibition dose-response curve” value in test [1] was 121. Also, the “area under cytotoxicity dose-response curve” value in test [2] was determined as 33.3.

For the molecule `CN(C)CCSc1nc2cc(S(=O)(=O)N3CCCCC3)ccc2o1`, in test [1], the “area under intracellular growth-inhibition dose-response curve” value came to 1.9. In test [2], the “area under cytotoxicity dose-response curve” value amounted to 11.5.

For the molecule `O=C(/C=C/c1ccc([N+](=O)[O-])o1)NNC(=O)c1ccc(F)cc1`, the “area under intracellular growth-inhibition dose-response curve” value in test [1] stood at 19.6. For the same molecule, the “area under cytotoxicity dose-response curve” value in test [2] stood at 51.9.

Turning to `CCCCNC(=O)Cc1ccc(C)cc1`, the “area under intracellular growth-inhibition dose-response curve” value in test [1] came out at 115. The “area under cytotoxicity dose-response curve” value in test [2] was 80.9.

In the case of `CCc1ccc(C(C)NC(=O)c2cccs2)cc1` (stereo not drawn), the “area under intracellular growth-inhibition dose-response curve” value in test [1] came out at 123. In test [2], the “area under cytotoxicity dose-response curve” value was 120.

On to `CCCn1c(-c2cccs2)nc2ccccc21`, for which the “area under intracellular growth-inhibition dose-response curve” value in test [1] worked out at 103. For the same molecule, the “area under cytotoxicity dose-response curve” value in test [2] is below 0.

For the molecule `O=C(COc1ccccc1)NC1C(=O)N2C(C(=O)O)=C(Cl)CSC12` (stereo not drawn), the “area under intracellular growth-inhibition dose-response curve” value in test [1] amounted to 144. In addition, the “area under cytotoxicity dose-response curve” value in test [2] is below 0.

Regarding `COc1ccc(C2=NCCn3c2c2ccc(C(F)(F)F)cc2[n+]3[O-])cc1`, the “area under intracellular growth-inhibition dose-response curve” value in test [1] turned out to be 95.2. Further, the “area under cytotoxicity dose-response curve” value in test [2] came out at 108.

For `COc1ccc(/C(C)=N/NC(=O)c2ccncc2)cc1`, the “area under intracellular growth-inhibition dose-response curve” value in test [1] worked out at 229. In addition, in test [2], the “area under cytotoxicity dose-response curve” value came to 151.

For the molecule `S=C(Nc1ccc(N2CCOCC2)cc1)Nc1ccc2snnc2c1`, in test [1], the “area under intracellular growth-inhibition dose-response curve” value came out at 235. In addition, the “area under cytotoxicity dose-response curve” value in test [2] worked out at 57.1.

For `CCCCCOc1ccc(C(=O)CCC(=O)NNC(=O)c2ccncc2)cc1`, the “area under intracellular growth-inhibition dose-response curve” value in test [1] is 224. For the same molecule, the “area under cytotoxicity dose-response curve” value in test [2] is 75.4.

With `CCO.C[C@H]1c2cccc(O)c2C(=O)C2=C(O)[C@]3(O)C(O)=C(C(N)=O)C(=O)[C@@H](N(C)C)C3[C@@H](O)C21.Cl.O` (stereo partly drawn), the “area under intracellular growth-inhibition dose-response curve” value in test [1] came to 242. Further, the “area under cytotoxicity dose-response curve” value in test [2] was 81.3.

Consider `CCCCOc1ccc(C(=O)C2=C(O)C(=O)N(CCCOC)C2c2ccncc2)cc1` (stereo not drawn), for which the “area under intracellular growth-inhibition dose-response curve” value in test [1] turned out to be 106. Moreover, the “area under cytotoxicity dose-response curve” value in test [2] turned out to be 19.4.

In the case of `O=C(COc1ccccc1)NCc1ccccc1`, the “area under intracellular growth-inhibition dose-response curve” value in test [1] was 163. For the same molecule, the “area under cytotoxicity dose-response curve” value in test [2] amounted to 14.8.

As for `NC(=S)N/N=C1\CCOc2ccc(F)cc21`, the “area under intracellular growth-inhibition dose-response curve” value in test [1] came to 232. For the same molecule, in test [2], the “area under cytotoxicity dose-response curve” value was below 0.

As for `COc1c(N2CCN(C(=S)Nc3ccccc3F)C(C)C2)c(F)cc2c(=O)c(C(=O)O)cn(C3CC3)c12` (stereo not drawn), the “area under intracellular growth-inhibition dose-response curve” value in test [1] came out at 275. For the same molecule, in test [2], the “area under cytotoxicity dose-response curve” value is below 0.

Consider `O=[N+]([O-])c1nn(-c2ccc(Cl)cc2)[n+]([O-])c1NCc1ccncc1`, for which the “area under intracellular growth-inhibition dose-response curve” value in test [1] was determined as 30.7. Moreover, the “area under cytotoxicity dose-response curve” value in test [2] was 11.5.

As for `CCC(=O)NC(=S)Nc1ccc(NC(=O)c2ccco2)cc1`, the “area under intracellular growth-inhibition dose-response curve” value in test [1] stood at 233. Also, the “area under cytotoxicity dose-response curve” value in test [2] amounted to 64.5.

As to `CC(C)Oc1ccc(/C=N/NC(N)=S)cc1`, the “area under intracellular growth-inhibition dose-response curve” value in test [1] was 275. Moreover, the “area under cytotoxicity dose-response curve” value in test [2] was found to be 17.8.

For `CC(=NNC(=O)c1ccncc1)c1cccc(Cl)c1`, in test [1], the “area under intracellular growth-inhibition dose-response curve” value turned out to be 258. The “area under cytotoxicity dose-response curve” value in test [2] was below 0.

In the case of `Cc1sc(N/N=C/C=C/c2ccccc2)nc1-c1ccccc1`, the “area under intracellular growth-inhibition dose-response curve” value in test [1] came out at 268. For the same molecule, the “area under cytotoxicity dose-response curve” value in test [2] is 16.1.

For the molecule `CCn1nc(C(=O)Nc2cccc(S(=O)(=O)N3CCCC3)c2)c2ccccc2c1=O`, in test [1], the “area under intracellular growth-inhibition dose-response curve” value amounted to 55.2. Besides, in test [2], the “area under cytotoxicity dose-response curve” value stood at 101.

For the molecule `CCOc1ccc(OCCC(=O)NNC(=O)c2ccncc2)cc1`, the “area under intracellular growth-inhibition dose-response curve” value in test [1] stood at 272. For the same molecule, the “area under cytotoxicity dose-response curve” value in test [2] amounted to 1.82.

For the molecule `CCS(=O)(=O)N1CCN(C(=O)CCC2CCCC2)CC1`, the “area under intracellular growth-inhibition dose-response curve” value in test [1] stood at 214. Besides, the “area under cytotoxicity dose-response curve” value in test [2] came out at 19.5.

On to `O=C(COc1ccccc1)NCc1cccs1`, for which, in test [1], the “area under intracellular growth-inhibition dose-response curve” value was 130. Further, the “area under cytotoxicity dose-response curve” value in test [2] was determined as 14.2.

As for `Nc1ccc(S(=O)(=O)Nc2cnc3ccccc3n2)cc1`, the “area under intracellular growth-inhibition dose-response curve” value in test [1] was determined as 156. In addition, the “area under cytotoxicity dose-response curve” value in test [2] is below 0.

Turning to `O=C(NC1CCCCC1)c1ccc2snnc2c1`, in test [1], the “area under intracellular growth-inhibition dose-response curve” value was 156. The “area under cytotoxicity dose-response curve” value in test [2] is below 0.

As for `CCN(CC)C(=O)CSc1nnc2nnc3cc(Cl)ccc3n12`, the “area under intracellular growth-inhibition dose-response curve” value in test [1] amounted to 219. Besides, the “area under cytotoxicity dose-response curve” value in test [2] came out at 55.1.

As for `CCOC(=O)c1ccccc1NC(=O)c1c(F)c(F)c(F)c(F)c1F`, in test [1], the “area under intracellular growth-inhibition dose-response curve” value is 183. The “area under cytotoxicity dose-response curve” value in test [2] is below 0.

Turning to `CC(=O)c1cc(NC(=O)c2ccc(C)cc2)c(=O)oc1/C=C/N(C)C`, in test [1], the “area under intracellular growth-inhibition dose-response curve” value was found to be 115. For the same molecule, in test [2], the “area under cytotoxicity dose-response curve” value is 37.1.

`O=C(N/N=C\c1ccc(Cl)s1)C1COc2ccccc2O1` (stereo not drawn): the “area under intracellular growth-inhibition dose-response curve” value in test [1] was 129. Further, the “area under cytotoxicity dose-response curve” value in test [2] is 2.47.

Regarding `CCCCN(C(=O)CSc1nnc(-c2ccccc2)o1)c1c(N)n(CCC)c(=O)[nH]c1=O`, the “area under intracellular growth-inhibition dose-response curve” value in test [1] came out at 65.6. The “area under cytotoxicity dose-response curve” value in test [2] is below 0.

Take `c1ccc2c(c1)-c1cccc3cncc-2c13`: in test [1], the “area under intracellular growth-inhibition dose-response curve” value came out at 200. The “area under cytotoxicity dose-response curve” value in test [2] came out at 36.8.

As to `CC(NC(=O)COC(=O)c1ccc(N2CCCC2=O)cc1)c1ccc(F)cc1` (stereo not drawn), in test [1], the “area under intracellular growth-inhibition dose-response curve” value amounted to 37.5. The “area under cytotoxicity dose-response curve” value in test [2] was below 0.

For the molecule `COc1ccc(CNc2nc3nc(C)c(Cl)c(O)n3n2)cc1`, the “area under intracellular growth-inhibition dose-response curve” value in test [1] was found to be 186. For the same molecule, the “area under cytotoxicity dose-response curve” value in test [2] was 9.37.

For the molecule `O=C(NC1CCCCCC1)c1ccco1`, the “area under intracellular growth-inhibition dose-response curve” value in test [1] came out at 214. Further, the “area under cytotoxicity dose-response curve” value in test [2] turned out to be 47.2.

Take `COc1cc(/C=N/NC(=O)c2ccncc2)ccc1OCc1cnc(Cl)s1`: the “area under intracellular growth-inhibition dose-response curve” value in test [1] was 219. Moreover, in test [2], the “area under cytotoxicity dose-response curve” value amounted to 3.56.

For the molecule `O=C(CCC1CCCCC1)NCc1ccccn1`, the “area under intracellular growth-inhibition dose-response curve” value in test [1] was found to be 222. Moreover, in test [2], the “area under cytotoxicity dose-response curve” value was determined as 3.

As to `CCOC(=O)N=Nc1c2nc3nonc3[nH]c-2c2ccccc12`, the “area under intracellular growth-inhibition dose-response curve” value in test [1] turned out to be 136. For the same molecule, the “area under cytotoxicity dose-response curve” value in test [2] is 186.
